What follows are compounds tested on ADP-stimulated platelets (assay: Inhibition of ADP-stimulated platelet aggregation (gel-filtered human platelets)). Details: read-out: IC50 (concentration required to inhibit aggregation by 50% relative to a control lacking the compound), gel-filtered human platelets 2×10^8 per ml, fibrinogen 100 ug/ml, Ca^2+ 1 mM, 10 mM ADP, 37° C.
Type: cell-based
Description: The activity of these fibrinogen receptor antagonists is illustrated below. One test used to evaluate fibrinogen receptor antagonist activity is based on evaluation of inhibition of ADP-stimulated platelets. Aggregation requires that fibrinogen bind to and occupy the platelet fibrinogen receptor site. Inhibitors of fibrinogen binding inhibit aggregation. […] Platelet aggregation is measured at 37° C. in a Chronolog aggregometer. The reaction mixture contains gel-filtered human platelets (2×10^8 per ml), fibrinogen (100 micrograms per ml (ug/ml)), Ca^2+ (1 mM), and the fibrinogen receptor antagonists tested. The aggregation is initiated by adding […] ADP 1 minute after the other components are added. The reaction is then allowed to proceed for at least 2 minutes. The extent of inhibition of aggregation is expressed as the percentage of the rate of aggregation observed in the absence of inhibitor. […] Inhibition of ADP-stimulated platelets is shown below in Table 1, which compares the concentration (dosage) of fibrinogen receptor antagonist required to inhibit aggregation by 50% relative to a control lacking the fibrinogen receptor antagonist.

Row | SMILES | IC50 [nM]
1 | CCCCS(=O)(=O)N[C@@H](Cc1ccc(OCCCCC2CCNCC2)cc1)C(=O)O | 15
2 | O=C(O)[C@H](Cc1ccc(OCCCCC2CCNCC2)cc1)NS(=O)(=O)Cc1ccccc1 | 18
3 | O=C(O)[C@H](Cc1ccc(OCCCCC2CCNCC2)cc1)NS(=O)(=O)c1ccccc1 | 18
4 | O=C(O)[C@H](Cc1ccc(OCCCCC2CCNCC2)cc1)NS(=O)(=O)CCc1ccccc1 | 29
5 | CS(=O)(=O)N[C@@H](Cc1ccc(OCCCCC2CCNCC2)cc1)C(=O)O | 63

From patent publication US5312923A, “Process for preparing fibrinogen receptor antagonists” (Merck & Co., Inc., priority 1993, dated 1994)
